Patent US12473301B2, “Isoquinoline compounds for the treatment of cancer” (Genentech, Inc., priority 2018, dated 2025)

What follows are molecules tested against HPK1 (Homo sapiens (Human), UniProt Q92918, S171E/T165E) (assay: HPK1-FL HTRF Enzymatic Assay ("HTRF")). Settings: HPK full length, ATP 1 mM.
Assay type: biochemical
Method: HPK1-FL HTRF Enzymatic Assay (“HTRF”)
HPK-FL enzyme phosphorylates Biotin-SLP-76 substrate in the presence of ATP at 1 mM and varying concentrations of test compound. Product is detected by FRET using Eu-anti-pSLP76 Ab and SA-XL665. Also see www.cisbio.com/HTRF for additional HTRF technology information.
Instrumentation: Echo555 compound dispenser; Agilent Bravo; Perkin Elmer Envision.
To a 384 well Proxiplate with 80 nL compound or DMSO spotted on was added 4 μl/well kinase mix. The mixture was preincubated for 30 minutes and then 4 μl/well substrate mix was added. The solution was incubated for 60 min and then 4 μl/well detection mix was added. The solution was incubated for another 60 min. The plates were then loaded onto a
Perkin Elmer Envision and the TR-FRET signal was measured at […] and 665 nm. A ratio of 665/620 was used to calculate the % activity at each concentration of compound.

HPK1, sequence (Q92918 whole entry T165E/S171E): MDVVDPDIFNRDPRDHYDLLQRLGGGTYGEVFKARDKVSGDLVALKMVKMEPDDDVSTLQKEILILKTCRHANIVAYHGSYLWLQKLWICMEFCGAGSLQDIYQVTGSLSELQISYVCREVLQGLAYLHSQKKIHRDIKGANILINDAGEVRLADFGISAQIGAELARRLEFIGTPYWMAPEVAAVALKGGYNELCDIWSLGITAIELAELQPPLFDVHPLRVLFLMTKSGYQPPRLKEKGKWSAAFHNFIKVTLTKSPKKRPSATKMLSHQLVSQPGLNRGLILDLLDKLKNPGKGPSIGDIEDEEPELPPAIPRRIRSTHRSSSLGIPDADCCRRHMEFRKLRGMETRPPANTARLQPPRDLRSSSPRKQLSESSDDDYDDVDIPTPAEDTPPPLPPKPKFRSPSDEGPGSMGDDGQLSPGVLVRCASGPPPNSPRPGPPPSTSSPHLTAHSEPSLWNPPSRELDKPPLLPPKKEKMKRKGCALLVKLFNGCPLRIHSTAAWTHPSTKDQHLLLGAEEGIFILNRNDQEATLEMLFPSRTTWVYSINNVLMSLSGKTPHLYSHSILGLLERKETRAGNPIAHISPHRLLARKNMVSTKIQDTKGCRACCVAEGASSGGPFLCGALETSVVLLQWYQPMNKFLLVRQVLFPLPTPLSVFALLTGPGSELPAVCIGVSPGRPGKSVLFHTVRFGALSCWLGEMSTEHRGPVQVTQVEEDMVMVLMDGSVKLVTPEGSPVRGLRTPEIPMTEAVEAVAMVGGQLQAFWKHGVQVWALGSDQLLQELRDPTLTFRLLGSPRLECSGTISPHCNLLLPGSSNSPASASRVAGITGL

Compared with `CC[C@H]1[C@H](C(=O)Nc2cc3cc(-c4cnc5c(c4C)NCCO5)c(F)cc3cn2)[C@H]1c1cnn(C)c1` (single isomer, unassigned) [Compound 301b], `CC[C@H]1[C@@H](C(=O)Nc2cc3cc(-c4cnc5c(c4C)NCCO5)c(F)cc3cn2)[C@@H]1c1cnn(C)c1` (single isomer, unassigned) [Compound 301d] is 4.4-fold lower in Ki: 8 nM for the first, 1.8 nM for the second. The second binds more tightly here.

Compared with `Cc1c(-c2cc3cc(NC(=O)OCC(C)(C)C)ncc3cc2F)cnc2c1NCCO2` [Compound 120, Neopentyl (7-fluoro-6-(8-methyl-2,3-dihydro-1H-pyrido[2,3-b][1,4]oxazin-7-yl)isoquinolin-3-yl)carbamate], `Cc1c(-c2cc3cc(NC(=O)OCC(F)(F)F)ncc3cc2F)cnc2c1NCCO2` [Compound 118, 2,2,2-Trifluoroethyl (7-fluoro-6-(8-methyl-2,3-dihydro-1H-pyrido[2,3-b][1,4]oxazin-7-yl)isoquinolin-3-yl)carbamate] is 48-fold higher in Ki: 4.3 nM for the first, 205 nM for the second.

First: Cc1c(-c2cc3cc(NC(=O)OCC4CCNC4)ncc3cc2F)cnc2c1NCCO2 (racemic) [Compound 107, Pyrrolidin-3-ylmethyl (7-fluoro-6-(8-methyl-2,3-dihydro-1H-pyrido[2,3-b][1,4]oxazin-7-yl)isoquinolin-3-yl)carbamate]
Second: Cc1c(-c2cc3cc(NC(=O)OC[C@H]4CCCN4)ncc3cc2F)cnc2c1NCCO2 [Compound 109a, (R)-Pyrrolidin-2-ylmethyl (7-fluoro-6-(8-methyl-2,3-dihydro-1H-pyrido[2,3-b][1,4]oxazin-7-yl)isoquinolin-3-yl)carbamate]
The Ki of the first is 12-fold lower: 2.1 nM for the first, 25 nM for the second.

Going from `Cc1c(-c2cc3cc(NC(=O)NCC4CC4)ncc3cc2F)cnc2c1NCCO2` [Compound 202, 1-(Cyclopropylmethyl)-3-(7-fluoro-6-(8-methyl-2,3-dihydro-1H-pyrido[2,3-b][1,4]oxazin-7-yl)isoquinolin-3-yl)urea] to `Cc1c(-c2cc3cc(NC(=O)NC4CCOC4)ncc3cc2F)cnc2c1NCCO2` (single isomer, unassigned) [Compound 206b], the Ki rises from 0.5 nM to 2.5 nM (5-fold).

Compared with `Cc1c(N)cncc1-c1cc2cc(NC(=O)OCC3CC3)ncc2cc1F` [Compound 102, Cyclopropylmethyl (6-(5-amino-4-methylpyridin-3-yl)-7-fluoroisoquinolin-3-yl)carbamate], `Cc1c(-c2cc3cc(NC(=O)OCCS(C)(=O)=O)ncc3cc2F)cnc2c1NCCO2` [Compound 117, 2-(Methylsulfonyl)ethyl (7-fluoro-6-(8-methyl-2,3-dihydro-1H-pyrido[2,3-b][1,4]oxazin-7-yl)isoquinolin-3-yl)carbamate] is 7.3-fold lower in Ki: 45 nM for the first, 6.2 nM for the second. The second binds more tightly here.

First: Cc1c(-c2cc3cc(NC(=O)OCC4(F)CCNC4)ncc3cc2F)cnc2c1NCCO2 (racemic) [Compound 106, (3-Fluoropyrrolidin-3-yl)methyl (7-fluoro-6-(8-methyl-2,3-dihydro-1H-pyrido[2,3-b][1,4]oxazin-7-yl)isoquinolin-3-yl)carbamate]
Second: Cc1c(-c2cc3cc(NC(=O)OCC45CC4CCN5)ncc3cc2F)cnc2c1NCCO2 (racemic) [Compound 122, (2-Azabicyclo[3.1.0]hexan-1-yl)methyl (7-fluoro-6-(8-methyl-2,3-dihydro-1H-pyrido[2,3-b][1,4]oxazin-7-yl)isoquinolin-3-yl)carbamate]
The Ki of the first is 10-fold lower: 2.4 nM for the first, 24 nM for the second. The first binds more tightly here.

First: Cc1c(-c2cc3cc(NC(=O)OC4CC5(C4)CN(C)C5)ncc3cc2F)cnc2c1NCCC2 [Compound 132, 2-Methyl-2-azaspiro[3.3]heptan-6-yl (7-fluoro-6-(4-methyl-5,6,7,8-tetrahydro-1,5-naphthyridin-3-yl)isoquinolin-3-yl)carbamate]
Second: Cc1c(-c2cc3cc(NC(=O)OC4CC5(CNC5)C4)ncc3cc2F)cnc2c1NCCO2 [Compound 125, 2-Azaspiro[3.3]heptan-6-yl (7-fluoro-6-(8-methyl-2,3-dihydro-1H-pyrido[2,3-b][1,4]oxazin-7-yl)isoquinolin-3-yl)carbamate]
The Ki of the first is 3.4-fold higher: 1.15 nM for the first, 0.34 nM for the second. The second binds more tightly here.

`Cc1c(-c2cc3cc(NC(=O)OC4CS(=O)(=O)C4)ncc3cc2F)cnc2c1NCCO2` [Compound 130, 1,1-Dioxidothientan-3-yl (7-fluoro-6-(8-methyl-2,3-dihydro-1H-pyrido[2,3-b][1,4]oxazin-7-yl)isoquinolin-3-yl)carbamate] and `CC(=O)N1CC(OC(=O)Nc2cc3cc(-c4cnc5c(c4C)NCCO5)c(F)cc3cn2)C1` [Compound 104, 1-Acetylazetidin-3-yl (7-fluoro-6-(8-methyl-2,3-dihydro-1H-pyrido[2,3-b][1,4]oxazin-7-yl)isoquinolin-3-yl)carbamate] are within 1.5-fold of each other in Ki: 4.1 nM for the first, 2.9 nM for the second.

Going from `Cc1c(-c2cc3cc(NC(=O)OCCC4C5CNCC45)ncc3cc2F)cnc2c1NCCO2` (stereo not shown) [Compound 124, 2-(3-Azabicyclo[3.1.0]hexan-6-yl)ethyl (7-fluoro-6-(8-methyl-2,3-dihydro-1H-pyrido[2,3-b][1,4]oxazin-7-yl)isoquinolin-3-yl)carbamate] to `COC(C)CCOC(=O)Nc1cc2cc(-c3cnc4c(c3C)NCCO4)c(F)cc2cn1` (racemic) [Compound 114, 3-Methoxybutyl (7-fluoro-6-(8-methyl-2,3-dihydro-1H-pyrido[2,3-b][1,4]oxazin-7-yl)isoquinolin-3-yl)carbamate], the Ki rises from 0.44 nM to 1.5 nM (3.4-fold). The first binds more tightly here.

Going from `Cc1c(-c2cc3cc(NC(=O)O[C@@H]4CCC[C@H]4C#N)ncc3cc2F)cnc2c1NCCO2` (single isomer, unassigned) [Compound 128a] to `Cc1c(-c2cc3cc(NC(=O)O[C@H]4CCC[C@@H]4C#N)ncc3cc2F)cnc2c1NCCO2` (single isomer, unassigned) [Compound 128b], the Ki falls from 2.5 nM to 0.78 nM (3.2-fold).

First: Cc1c(-c2cc3cc(NC(=O)OC4CCC45CCNC5)ncc3cc2F)cnc2c1NCCO2 (racemic) [Compound 123, 6-Azaspiro[3.4]octan-1-yl (7-fluoro-6-(8-methyl-2,3-dihydro-1H-pyrido[2,3-b][1,4]oxazin-7-yl)isoquinolin-3-yl)carbamate]
Second: Cc1c(-c2cc3cc(NC(=O)OC4CCOCC4)ncc3cc2F)cnc2c1NCCO2 [Compound 103, Tetrahydro-2H-pyran-4-yl (7-fluoro-6-(8-methyl-2,3-dihydro-1H-pyrido[2,3-b][1,4]oxazin-7-yl)isoquinolin-3-yl)carbamate]
The Ki of the first is 1.5-fold higher: 7.5 nM for the first, 5 nM for the second.

Compared with `Cc1c(-c2cc3cc(NC(=O)O[C@@H]4CCC[C@H]4C#N)ncc3c(Cl)c2F)cnc2c1NCCO2` (single isomer, unassigned) [Compound 127a], `Cc1c(-c2cc3cc(NC(=O)O[C@H]4CCC[C@@H]4C#N)ncc3c(Cl)c2F)cnc2c1NCCO2` (single isomer, unassigned) [Compound 127b] is 4.7-fold higher in Ki: 0.805 nM for the first, 3.75 nM for the second.

First: Cc1c(-c2cc3cc(NC(=O)NC(C)c4cnn(C)c4)ncc3cc2F)cnc2c1NCCO2 (single isomer, unassigned) [Compound 201b]
Second: Cc1c(-c2cc3cc(NC(=O)NC(C)CC#N)ncc3cc2F)cnc2c1NCCO2 (single isomer, unassigned) [Compound 203b]
The Ki of the first is 9.1-fold higher: 10 nM for the first, 1.1 nM for the second. The second binds more tightly here.

Going from `Cc1c(-c2cc3cc(NC(=O)OC4CC5CC4CN5)ncc3cc2F)cnc2c1NCCO2` (stereo not shown) [Compound 121, 2-Azabicyclo[2.2.1]heptan-5-yl (7-fluoro-6-(8-methyl-2,3-dihydro-1H-pyrido[2,3-b][1,4]oxazin-7-yl)isoquinolin-3-yl)carbamate] to `Cc1c(-c2cc3cc(NC(=O)NC(C)CC#N)ncc3cc2F)cnc2c1NCCO2` (single isomer, unassigned) [Compound 203a], the Ki falls from 8.7 nM to 4 nM (2.2-fold).
